According to patent US11912693B2, “Compounds for modulating S1P1 activity and methods of using the same” (TREVENA, INC., priority 2017, dated 2024):

Assays:
[1] = molecular target: T1, human sphingosine-1-phosphate receptor 1 (S1P1) (Homo sapiens (Human), UniProt P21453); assay: Inhibition of cAMP production (HTRF cAMP HiRange), S1P1 CHO-K1 cells; format: cell-based; conditions: for Emax: CHO-K1, efficacy (SPAN) normalized to fingolimod, read-out: hS1P1 cAMP SPAN
How it was run: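 CHO-K1 cells stably co-expressing human S1P1 (C-terminal Prolink tag) and EA-β-arrestin2 were grown in AssayComplete Media 6 at 37° C. and 5% CO2, plated, and incubated overnight. Agonist-driven inhibition of intracellular cAMP was read by TR-FRET with the HTRF cAMP HiRange kit on a PheraStar reader. Potency is pEC50, and efficacy (SPAN) is normalized to fingolimod.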
Target sequence in this assay (P21453 whole entry, looked up): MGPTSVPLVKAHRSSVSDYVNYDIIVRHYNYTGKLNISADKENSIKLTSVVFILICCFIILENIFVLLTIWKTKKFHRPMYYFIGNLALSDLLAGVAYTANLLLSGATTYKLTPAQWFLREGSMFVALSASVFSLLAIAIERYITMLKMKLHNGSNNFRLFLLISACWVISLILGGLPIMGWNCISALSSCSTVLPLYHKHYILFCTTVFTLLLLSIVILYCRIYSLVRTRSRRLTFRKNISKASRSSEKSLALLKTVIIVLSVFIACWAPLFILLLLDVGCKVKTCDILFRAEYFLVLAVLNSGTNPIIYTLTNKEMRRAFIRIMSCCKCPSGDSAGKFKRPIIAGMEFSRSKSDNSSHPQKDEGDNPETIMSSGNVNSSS

[2] = molecular target: T1, human sphingosine-1-phosphate receptor 1 (S1P1); assay: β-Arrestin2 recruitment assay (PathHunter), S1P1 CHO-K1 cells; format: cell-based; conditions: for Emax: CHO-K1, efficacy (SPAN) normalized to fingolimod, read-out: hS1P1 B-arrestin2 SPAN
How it was run: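 Enzyme-fragment complementation read-out: agonist-driven β-arrestin2 binding to ProLink-tagged human S1P1 in stable CHO-K1 cells restores β-galactosidase, measured 1 h at room temperature after a 60 min 37° C. compound incubation. Potency as pEC50, efficacy relative to fingolimod (SPAN).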
Target sequence in this assay (P21453 whole entry, looked up): as above
Target sequence in this assay (P32121 whole entry partner, looked up): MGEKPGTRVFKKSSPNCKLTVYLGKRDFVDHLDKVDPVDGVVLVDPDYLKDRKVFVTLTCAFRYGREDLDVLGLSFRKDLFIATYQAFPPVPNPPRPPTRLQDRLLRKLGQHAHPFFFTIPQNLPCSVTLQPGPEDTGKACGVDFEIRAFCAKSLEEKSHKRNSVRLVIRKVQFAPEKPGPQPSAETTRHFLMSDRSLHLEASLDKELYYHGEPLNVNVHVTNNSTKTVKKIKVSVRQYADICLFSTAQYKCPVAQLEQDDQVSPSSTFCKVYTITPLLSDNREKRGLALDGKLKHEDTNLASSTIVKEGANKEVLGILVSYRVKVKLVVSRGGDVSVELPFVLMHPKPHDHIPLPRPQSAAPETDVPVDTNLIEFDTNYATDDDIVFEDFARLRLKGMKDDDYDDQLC

[3] = inhibition of cAMP production, S1P1 CHO-K1 cells
[4] = β-arrestin2 recruitment, S1P1 CHO-K1 cells

SMILES	Emax [1] [%]	hS1P1 cAMP pEC50 [1, 3]	Emax [2] [%]	hS1P1 B-arrestin2 pEC50 [2, 4]	EC50 ([1]; inhibition of cAMP production, S1P1 CHO-K1 cells, read-out: hS1P1 cAMP pEC50 (converted)) [µM]	EC50 ([2]; β-arrestin2 recruitment, S1P1 CHO-K1 cells, read-out: hS1P1 B-arrestin2 pEC50 (converted)) [µM]
CC(C)n1nnc2cc(C(=O)Nc3noc4ccccc34)ccc21 [Compound 181, N-(benzo[d]isoxazol-3-yl)-1-isopropyl-1H-benzo[d][1,2,3]triazole-5-carboxamide]	> 75	<6.5	> 75	<5		
Cc1ccccc1-c1noc(-c2ccc3c(c2)nnn3CC(F)F)n1 [Compound 182, 1-(2,2-difluoroethyl)-5-[3-(2-methylphenyl)-1,2,4-oxadiazol-5-yl]-1H-1,2,3-benzotriazole]	> 75	>6.5	< 75	>5		
CC(C)n1nnc2cc(-c3nc(-c4ccccc4Br)co3)ccc21 [Compound 183, 5-[4-(2-bromophenyl)-1,3-oxazol-2-yl]-1-(propan-2-yl)-1H-1,2,3-benzotriazole]	> 75	>6.5	> 75	>5		
COc1ccccc1-c1cnc(-c2ccc3c(c2)nnn3C(C)C)s1 [Compound 184, 2-(1-isopropyl-1H-benzo[d][1,2,3]triazol-5-yl)-5-(2-methoxyphenyl)thiazole]		<6.5		<5		
COCC1(COC)CC(=O)c2cc(-c3nc(-c4cccnc4)no3)ccc2O1 [Compound 186, 2,2-bis(methoxymethyl)-6-[3-(pyridin-3-yl)-1,2,4-oxadiazol-5-yl]-3,4-dihydro-2H-1-benzopyran-4-one]	< 75	<6.5	< 75	<5		
CCC1(CC)CC(=O)c2cc(-c3nc(-c4ccccc4O)no3)ccc2O1 [Compound 187, 2,2-diethyl-6-[3-(2-hydroxyphenyl)-1,2,4-oxadiazol-5-yl]chroman-4-one]	< 75	<6.5	> 75	<5		
CCCCC1(CCCC)CC(=O)c2cc(-c3nc(-c4cccnc4)no3)ccc2O1 [Compound 188, 2,2-dibutyl-6-[3-(pyridin-3-yl)-1,2,4-oxadiazol-5-yl]-3,4-dihydro-2H-1-benzopyran-4-one]	< 75	<6.5	< 75	<5		
C=CCNc1ccc(-c2nc(-c3ccc4[nH]c(=O)oc4c3)no2)cc1C#N [Compound 189, 2-(allylamino)-5-(3-(2-oxo-2,3-dihydrobenzo[d]oxazol-6-yl)-1,2,4-oxadiazol-5-yl)benzonitrile]		>6.5		>5		
Brc1ccccc1-c1noc(-c2ccc3[nH]nnc3c2)n1 [Compound 190, 5-[3-(2-bromophenyl)-1,2,4-oxadiazol-5-yl]-1H-1,2,3-benzotriazole]	< 75	<6.5	< 75	<5		
Cc1ccc(-c2noc(-c3ccc4c(c3)nnn4C3CCCC3)n2)s1 [Compound 192, 1-cyclopentyl-5-[3-(5-methylthiophen-2-yl)-1,2,4-oxadiazol-5-yl]-1H-1,2,3-benzotriazole]		<6.5		<5		
CCCn1nnc2cc(-c3nc(-c4ccc(C(F)(F)F)c(F)c4)no3)ccc21 [Compound 193, 5-{3-[3-fluoro-4-(trifluoromethyl)phenyl]-1,2,4-oxadiazol-5-yl}-1-propyl-1H-1,2,3-benzotriazole]		<6.5		<5		
Cc1ncccc1-c1nc(-c2ccc3c(c2)nnn3C(C)C)no1 [Compound 194, 3-(1-isopropyl-1H-benzo[d][1,2,3]triazol-5-yl)-5-(2-methylpyridin-3-yl)-1,2,4-oxadiazole]	< 75	<6.5	< 75	<5		
O=C(O)Cn1nnc2cc(-c3noc(-c4ccccc4Br)n3)ccc21 [Compound 195, 2-(5-(5-(2-bromophenyl)-1,2,4-oxadiazol-3-yl)-1H-benzo[d][1,2,3]triazol-1-yl)acetic acid]	< 75		< 75		> 0.316	> 10
COc1ccc(-c2nc(-c3ccc4c(c3)nnn4C3CCCC3)no2)cc1 [Compound 196, 3-(1-cyclopentyl-1H-benzo[d][1,2,3]triazol-5-yl)-5-(4-methoxyphenyl)-1,2,4-oxadiazole]		<6.5		<5		
COc1ccc(-c2noc(-c3ccc4c(c3)nnn4C3CCCC3)n2)cc1C(F)(F)F [Compound 197, 1-cyclopentyl-5-{3-[4-methoxy-3-(trifluoromethyl)phenyl]-1,2,4-oxadiazol-5-yl}-1H-1,2,3-benzotriazole]	< 75	<6.5	< 75	<5		
Clc1ncccc1-c1noc(-c2ccc3c(c2)nnn3C2CCCC2)n1 [Compound 198, 5-[3-(2-chloropyridin-3-yl)-1,2,4-oxadiazol-5-yl]-1-cyclopentyl-1H-1,2,3-benzotriazole]	> 75	>6.5	< 75	>5		
Clc1ncccc1-c1noc(-c2ccc3c(c2)nnn3CC2CC2)n1 [Compound 199, 5-[3-(2-chloropyridin-3-yl)-1,2,4-oxadiazol-5-yl]-1-(cyclopropylmethyl)-1H-1,2,3-benzotriazole]	< 75	<6.5	< 75	<5		
CC(C)n1nnc2cc(-c3noc(C45CC6CC(CC(C6)C4)C5)n3)ccc21 [Compound 200, 5-[5-(adamantan-1-yl)-1,2,4-oxadiazol-3-yl]-1-(propan-2-yl)-1H-1,2,3-benzotriazole]		<6.5		<5		
Cc1cc(-c2nc(-c3ccc4c(c3)nnn4C(C)C)no2)cnc1C [Compound 201, 5-(5,6-dimethylpyridin-3-yl)-3-(1-isopropyl-1H-benzo[d][1,2,3]triazol-5-yl)-1,2,4-oxadiazole]		<6.5		<5		
Cc1ccccc1Cc1noc(-c2ccc3c(c2)nnn3C(C)C)n1 [Compound 202, 5-{3-[(2-methylphenyl)methyl]-1,2,4-oxadiazol-5-yl}-1-(propan-2-yl)-1H-1,2,3-benzotriazole]	< 75	<6.5	< 75	<5		
COc1cccnc1-c1noc(-c2ccc3c(c2)nnn3C2CCCC2)n1 [Compound 203, 1-cyclopentyl-5-[3-(3-methoxypyridin-2-yl)-1,2,4-oxadiazol-5-yl]-1H-1,2,3-benzotriazole]	< 75	<6.5	> 75	<5		
Cc1cc(C)cc(-c2noc(-c3ccc4c(c3)nnn4C(C)C)n2)c1 [Compound 204, 5-[3-(3,5-dimethylphenyl)-1,2,4-oxadiazol-5-yl]-1-(propan-2-yl)-1H-1,2,3-benzotriazole]	> 75	<6.5	> 75	>5		
CCCn1nnc2cc(-c3nc(-c4ccncc4)no3)ccc21 [Compound 205, 1-propyl-5-[3-(pyridin-4-yl)-1,2,4-oxadiazol-5-yl]-1H-1,2,3-benzotriazole]	> 75	<6.5	< 75	<5		
Cc1ccncc1-c1noc(-c2ccc3c(c2)nnn3CC(C)(C)O)n1 [Compound 206, 2-methyl-1-{5-[3-(4-methylpyridin-3-yl)-1,2,4-oxadiazol-5-yl]-1H-1,2,3-benzotriazol-1-yl}propan-2-ol]	> 75	<6.5	< 75	<5		
COc1ccccc1-c1noc(-c2ccc3c(c2)nnn3C(C)(C)C)n1 [Compound 207, 1-tert-butyl-5-[3-(2-methoxyphenyl)-1,2,4-oxadiazol-5-yl]-1H-1,2,3-benzotriazole]	> 75	>6.5	> 75	>5		
C=CCNc1ccc(-c2nc(-c3ccc4[nH]ccc4c3)no2)cc1C#N [Compound 208, 5-(3-(1H-indol-5-yl)-1,2,4-oxadiazol-5-yl)-2-(allylamino)benzonitrile]	> 75	>6.5	> 75	>5		
CCC1(CC)CC(=O)c2cc(-c3nc(-c4ccc(NC(C)=O)cc4)no3)ccc2O1 [Compound 209, N-(4-(5-(2,2-diethyl-4-oxochroman-6-yl)-1,2,4-oxadiazol-3-yl)phenyl)acetamide]	> 75	>6.5	> 75	>5		
CCC1(CC)CC(=O)c2cc(-c3nc(-c4ccc5[nH]cnc5c4)no3)ccc2O1 [Compound 211, 6-(3-(1H-benzo[d]imidazol-5-yl)-1,2,4-oxadiazol-5-yl)-2,2-diethylchroman-4-one]	< 75	<6.5	> 75	>5		
